Experiment [1] concerns the target Tyrosine-protein kinase ABL1 (Homo sapiens, UniProt P00519). Nature of the experiment: Selectivity interaction (Ambit KINOMEscan and KiNATiv profiling in Jurkat cells) EUB0000090b ABL1. The format is cell-based. Particulars: at 1 µM.
The target in experiment [2] is Calcium/calmodulin-dependent protein kinase type 1D (Homo sapiens) (UniProt Q8IU85). Briefly: Selectivity interaction (Ambit KINOMEscan and KiNATiv profiling in Jurkat cells) EUB0000090b CAMK1D. The format is cell-based. Particulars: at 1 µM.
For experiment [3], the target named is Phosphorylase b kinase gamma catalytic chain, skeletal muscle/heart isoform (Homo sapiens) (UniProt Q16816). Nature of the experiment: Selectivity interaction (Ambit KINOMEscan and KiNATiv profiling in Jurkat cells) EUB0000090b PHKG1. Particulars: at 1 µM. The experiment is classed as cell-based.
Experiment [4] concerns the target Fibroblast growth factor receptor 4 (Homo sapiens, UniProt P22455). Nature of the experiment: Selectivity interaction (KinomeScan (DiscoverX)) EUB0001079a FGFR4. To be noted: at 1 µM.
Experiment [5] has as its target Protein kinase C eta type (Homo sapiens) (UniProt P24723). Nature of the experiment: Selectivity interaction (Millipore kinase profiler) EUB0000124b PRKCH. To be noted: at 10 µM.
The target in experiment [6] is Serine/threonine-protein kinase B-raf (Homo sapiens) (UniProt P15056). Briefly: Selectivity interaction (Kinase panel (Eurofins)) EUB0001564a BRAF. To be noted: at 1 µM.
In experiment [7] the target is Serine/threonine-protein kinase PAK 6 (Homo sapiens) (UniProt Q9NQU5). Briefly: Selectivity interaction (KinomeScan (DiscoverX)) EUB0000045b PAK6. To be noted: at 1 µM.
For experiment [8], the system named is T1, Discoidin domain-containing receptor 2 (Homo sapiens), Q16832 [N456S].
T1 sequence (whole entry): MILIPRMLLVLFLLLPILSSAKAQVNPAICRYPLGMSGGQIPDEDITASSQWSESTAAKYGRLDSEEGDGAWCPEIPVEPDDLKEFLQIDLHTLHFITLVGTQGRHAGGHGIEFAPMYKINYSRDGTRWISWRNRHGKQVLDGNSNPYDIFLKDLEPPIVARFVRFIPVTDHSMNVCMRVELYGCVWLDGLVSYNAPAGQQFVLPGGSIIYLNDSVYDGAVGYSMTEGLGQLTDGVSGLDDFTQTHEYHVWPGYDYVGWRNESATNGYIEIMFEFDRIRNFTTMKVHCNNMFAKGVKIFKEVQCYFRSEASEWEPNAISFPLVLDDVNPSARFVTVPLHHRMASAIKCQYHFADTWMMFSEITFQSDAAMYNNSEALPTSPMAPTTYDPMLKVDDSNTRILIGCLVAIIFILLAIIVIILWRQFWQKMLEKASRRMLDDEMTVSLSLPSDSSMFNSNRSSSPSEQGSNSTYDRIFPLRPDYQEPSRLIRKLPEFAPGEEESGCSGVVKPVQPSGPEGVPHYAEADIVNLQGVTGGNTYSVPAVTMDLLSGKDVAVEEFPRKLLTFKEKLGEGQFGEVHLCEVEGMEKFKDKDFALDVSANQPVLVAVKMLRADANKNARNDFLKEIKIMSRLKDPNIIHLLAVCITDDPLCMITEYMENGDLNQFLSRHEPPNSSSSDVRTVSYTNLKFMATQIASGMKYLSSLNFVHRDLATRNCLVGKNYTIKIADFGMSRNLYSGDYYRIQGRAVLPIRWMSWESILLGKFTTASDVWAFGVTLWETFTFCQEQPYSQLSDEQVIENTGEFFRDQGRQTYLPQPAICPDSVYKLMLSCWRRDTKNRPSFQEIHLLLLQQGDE
Briefly: Selectivity interaction (LanthaScreen Eu Kinase Binding Assay) EUB0001632a DDR2. To be noted: at 10 µM. Background: Time-resolved FRET reads energy transfer from a long-lived donor to a nearby acceptor.

In experiment [9] the target is RAC-alpha serine/threonine-protein kinase (Homo sapiens, UniProt P31749). Nature of the experiment: Selectivity interaction (Kinase panel (33PanQinase(R) Activity Assay)) EUB0000877a AKT1.
For experiment [10], the target named is Casein kinase I isoform alpha (Homo sapiens, UniProt P48729). Nature of the experiment: Selectivity interaction (KinomeScan (DiscoverX)) EUB0000595a CSNK1A1. Particulars: at 10 µM.
Experiment [11] addresses Macrophage colony-stimulating factor 1 receptor (Homo sapiens) (UniProt P07333). Briefly: Selectivity interaction (KinomeScan (DiscoverX)) EUB0001619a CSF1R. To be noted: at 1 µM.
Experiment [12] addresses T2, Diacylglycerol kinase eta (Homo sapiens) (UniProt Q86XP1).
T2 sequence (whole entry): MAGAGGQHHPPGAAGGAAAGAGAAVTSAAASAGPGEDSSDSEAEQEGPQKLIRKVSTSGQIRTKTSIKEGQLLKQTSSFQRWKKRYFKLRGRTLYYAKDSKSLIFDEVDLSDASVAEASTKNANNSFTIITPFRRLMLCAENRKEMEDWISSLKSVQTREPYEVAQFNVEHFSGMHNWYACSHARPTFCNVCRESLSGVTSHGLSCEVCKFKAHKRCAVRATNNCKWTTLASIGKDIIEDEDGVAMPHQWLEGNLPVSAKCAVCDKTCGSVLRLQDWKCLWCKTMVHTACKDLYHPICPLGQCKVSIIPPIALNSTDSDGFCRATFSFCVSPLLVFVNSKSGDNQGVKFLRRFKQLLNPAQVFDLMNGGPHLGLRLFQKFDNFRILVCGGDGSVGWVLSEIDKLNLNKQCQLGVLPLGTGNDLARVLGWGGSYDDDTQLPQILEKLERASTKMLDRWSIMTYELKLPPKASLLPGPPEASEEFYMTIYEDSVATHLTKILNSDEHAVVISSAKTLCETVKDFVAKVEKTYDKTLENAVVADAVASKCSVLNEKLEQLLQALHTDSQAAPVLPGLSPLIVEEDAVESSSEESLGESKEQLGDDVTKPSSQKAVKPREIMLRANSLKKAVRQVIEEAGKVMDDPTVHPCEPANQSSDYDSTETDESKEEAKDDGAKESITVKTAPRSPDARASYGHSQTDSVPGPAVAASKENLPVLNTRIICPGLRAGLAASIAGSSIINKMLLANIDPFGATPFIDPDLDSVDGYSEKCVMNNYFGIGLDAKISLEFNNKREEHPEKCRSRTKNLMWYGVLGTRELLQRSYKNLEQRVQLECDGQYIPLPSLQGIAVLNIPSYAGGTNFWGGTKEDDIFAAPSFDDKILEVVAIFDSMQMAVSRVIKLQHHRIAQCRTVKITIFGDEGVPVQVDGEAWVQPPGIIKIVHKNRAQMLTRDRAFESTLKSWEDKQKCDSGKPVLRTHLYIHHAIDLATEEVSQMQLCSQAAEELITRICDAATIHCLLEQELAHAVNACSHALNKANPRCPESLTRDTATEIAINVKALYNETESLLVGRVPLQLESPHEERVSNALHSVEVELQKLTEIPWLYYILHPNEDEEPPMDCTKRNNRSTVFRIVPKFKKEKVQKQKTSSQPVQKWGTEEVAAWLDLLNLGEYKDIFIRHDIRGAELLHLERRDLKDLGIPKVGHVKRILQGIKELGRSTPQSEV
Nature of the experiment: Selectivity interaction (Kinase panel (KiNativ target engagement assay in Jurkat cells)) EUB0001635a DGKH. Particulars: Selectivity number of off-targets 0.0, Selectivity number of targets 233.0, Source Knowledge https://www.sciencedirect.com/science/article/pii/S2451945619300674?via%3Dihub, at 1 µM. The format is cell-based.

Bounds are passed on as bounds.

For orientation: IC50 means the concentration needed to halve the response being measured. Low values mean inhibition by little substance, high ones a need for much substance.

Sequence of Phosphorylase b kinase gamma catalytic chain, skeletal muscle/heart isoform (Homo sapiens) (Q16816 whole entry, looked up, canonical isoform): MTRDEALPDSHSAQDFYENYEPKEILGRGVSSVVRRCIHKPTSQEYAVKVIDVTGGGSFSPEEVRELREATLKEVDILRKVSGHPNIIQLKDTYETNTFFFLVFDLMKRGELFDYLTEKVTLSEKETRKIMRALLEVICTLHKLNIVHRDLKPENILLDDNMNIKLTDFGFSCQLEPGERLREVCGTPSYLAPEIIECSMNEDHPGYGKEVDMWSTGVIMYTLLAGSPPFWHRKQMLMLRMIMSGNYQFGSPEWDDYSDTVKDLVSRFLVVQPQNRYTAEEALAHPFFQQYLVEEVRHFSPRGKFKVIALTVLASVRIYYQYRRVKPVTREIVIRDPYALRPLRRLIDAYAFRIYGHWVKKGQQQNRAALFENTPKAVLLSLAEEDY
Sequence of Serine/threonine-protein kinase PAK 6 (Homo sapiens) (Q9NQU5 whole entry, looked up, the tested form may be a part): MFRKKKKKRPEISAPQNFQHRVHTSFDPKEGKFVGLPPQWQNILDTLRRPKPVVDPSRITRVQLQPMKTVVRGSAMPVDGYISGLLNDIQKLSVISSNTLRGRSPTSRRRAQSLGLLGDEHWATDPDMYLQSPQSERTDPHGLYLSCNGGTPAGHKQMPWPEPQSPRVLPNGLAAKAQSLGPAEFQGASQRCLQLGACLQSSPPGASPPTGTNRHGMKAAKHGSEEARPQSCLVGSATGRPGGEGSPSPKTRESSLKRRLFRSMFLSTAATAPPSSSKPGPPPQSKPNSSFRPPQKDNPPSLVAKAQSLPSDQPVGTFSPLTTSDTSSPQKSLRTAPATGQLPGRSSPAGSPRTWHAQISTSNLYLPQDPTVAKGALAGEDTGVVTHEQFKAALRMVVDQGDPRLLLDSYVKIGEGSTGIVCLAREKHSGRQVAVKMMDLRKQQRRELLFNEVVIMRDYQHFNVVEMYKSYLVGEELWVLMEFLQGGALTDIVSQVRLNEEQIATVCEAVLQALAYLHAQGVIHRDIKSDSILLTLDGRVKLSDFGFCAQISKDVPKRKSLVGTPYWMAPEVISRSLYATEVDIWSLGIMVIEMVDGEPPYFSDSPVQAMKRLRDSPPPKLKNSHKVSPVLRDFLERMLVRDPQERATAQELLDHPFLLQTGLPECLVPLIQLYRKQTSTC
Sequence of Fibroblast growth factor receptor 4 (P22455 22-802 limits assumed): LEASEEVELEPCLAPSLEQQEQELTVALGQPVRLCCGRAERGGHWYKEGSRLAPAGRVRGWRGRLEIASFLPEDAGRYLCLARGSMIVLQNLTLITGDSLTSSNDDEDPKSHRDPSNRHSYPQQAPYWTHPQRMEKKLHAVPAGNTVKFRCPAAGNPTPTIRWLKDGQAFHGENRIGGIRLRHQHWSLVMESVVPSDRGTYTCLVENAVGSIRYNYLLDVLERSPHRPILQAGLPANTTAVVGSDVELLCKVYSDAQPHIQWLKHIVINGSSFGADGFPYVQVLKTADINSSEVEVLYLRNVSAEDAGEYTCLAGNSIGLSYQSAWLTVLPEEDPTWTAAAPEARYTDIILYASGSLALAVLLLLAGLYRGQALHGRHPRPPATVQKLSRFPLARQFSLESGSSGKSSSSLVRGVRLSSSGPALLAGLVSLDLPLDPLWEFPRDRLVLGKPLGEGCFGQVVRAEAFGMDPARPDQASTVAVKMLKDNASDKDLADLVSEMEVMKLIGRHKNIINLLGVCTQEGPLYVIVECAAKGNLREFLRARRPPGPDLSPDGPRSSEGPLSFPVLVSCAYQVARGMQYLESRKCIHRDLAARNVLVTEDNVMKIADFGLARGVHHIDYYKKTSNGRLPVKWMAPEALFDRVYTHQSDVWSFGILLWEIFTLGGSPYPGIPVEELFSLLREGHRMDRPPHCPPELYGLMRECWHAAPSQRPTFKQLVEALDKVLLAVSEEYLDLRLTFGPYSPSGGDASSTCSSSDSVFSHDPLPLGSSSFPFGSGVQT
Sequence of RAC-alpha serine/threonine-protein kinase (P31749 whole entry, canonical isoform): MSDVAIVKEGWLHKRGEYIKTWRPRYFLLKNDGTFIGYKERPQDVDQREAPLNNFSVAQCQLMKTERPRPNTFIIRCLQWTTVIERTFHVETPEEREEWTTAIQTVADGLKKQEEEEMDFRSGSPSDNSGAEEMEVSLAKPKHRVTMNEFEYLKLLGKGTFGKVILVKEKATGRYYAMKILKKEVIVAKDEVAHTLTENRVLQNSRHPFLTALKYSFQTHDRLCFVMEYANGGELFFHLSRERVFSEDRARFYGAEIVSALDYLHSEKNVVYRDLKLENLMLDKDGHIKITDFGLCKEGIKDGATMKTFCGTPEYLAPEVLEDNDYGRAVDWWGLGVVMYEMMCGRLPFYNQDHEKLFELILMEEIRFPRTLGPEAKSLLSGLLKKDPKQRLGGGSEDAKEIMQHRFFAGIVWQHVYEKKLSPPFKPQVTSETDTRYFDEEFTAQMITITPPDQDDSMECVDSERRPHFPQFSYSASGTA
Sequence of Macrophage colony-stimulating factor 1 receptor (Homo sapiens) (P07333 whole entry): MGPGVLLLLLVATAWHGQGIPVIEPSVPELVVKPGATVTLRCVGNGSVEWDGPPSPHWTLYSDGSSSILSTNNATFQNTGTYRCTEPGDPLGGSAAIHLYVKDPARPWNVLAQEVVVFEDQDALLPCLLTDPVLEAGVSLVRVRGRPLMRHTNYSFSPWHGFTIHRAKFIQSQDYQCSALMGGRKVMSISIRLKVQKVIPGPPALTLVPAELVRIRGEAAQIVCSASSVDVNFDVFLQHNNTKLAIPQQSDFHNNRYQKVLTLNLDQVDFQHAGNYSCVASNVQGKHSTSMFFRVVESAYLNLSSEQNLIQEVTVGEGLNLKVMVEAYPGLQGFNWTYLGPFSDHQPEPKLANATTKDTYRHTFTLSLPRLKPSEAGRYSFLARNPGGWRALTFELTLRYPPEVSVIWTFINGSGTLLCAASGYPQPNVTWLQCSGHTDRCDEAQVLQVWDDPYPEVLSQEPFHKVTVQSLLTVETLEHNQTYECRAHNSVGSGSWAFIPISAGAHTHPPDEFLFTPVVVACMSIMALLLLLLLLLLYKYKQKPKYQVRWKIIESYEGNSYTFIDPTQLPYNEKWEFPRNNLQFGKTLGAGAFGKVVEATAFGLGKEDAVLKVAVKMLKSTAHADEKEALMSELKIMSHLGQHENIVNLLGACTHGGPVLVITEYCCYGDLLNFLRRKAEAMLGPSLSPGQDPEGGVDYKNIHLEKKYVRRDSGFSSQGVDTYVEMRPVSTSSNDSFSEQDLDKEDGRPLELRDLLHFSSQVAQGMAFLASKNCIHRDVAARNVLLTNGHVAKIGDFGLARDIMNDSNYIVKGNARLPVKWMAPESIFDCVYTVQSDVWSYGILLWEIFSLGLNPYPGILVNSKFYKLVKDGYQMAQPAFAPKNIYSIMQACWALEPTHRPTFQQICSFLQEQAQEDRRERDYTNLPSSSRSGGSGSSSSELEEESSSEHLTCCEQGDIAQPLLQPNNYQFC
Sequence of Casein kinase I isoform alpha (P48729 2-337 limits assumed): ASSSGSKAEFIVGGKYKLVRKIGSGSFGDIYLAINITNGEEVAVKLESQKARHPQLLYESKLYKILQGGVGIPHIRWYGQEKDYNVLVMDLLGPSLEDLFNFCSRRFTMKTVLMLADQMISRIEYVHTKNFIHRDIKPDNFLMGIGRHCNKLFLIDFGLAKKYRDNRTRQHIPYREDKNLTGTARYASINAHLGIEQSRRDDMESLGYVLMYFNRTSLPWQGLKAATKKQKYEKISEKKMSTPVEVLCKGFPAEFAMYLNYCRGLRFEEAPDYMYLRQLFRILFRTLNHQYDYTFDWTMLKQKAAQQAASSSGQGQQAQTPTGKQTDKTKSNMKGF
Sequence of Calcium/calmodulin-dependent protein kinase type 1D (Homo sapiens) (Q8IU85 whole entry, looked up, canonical isoform): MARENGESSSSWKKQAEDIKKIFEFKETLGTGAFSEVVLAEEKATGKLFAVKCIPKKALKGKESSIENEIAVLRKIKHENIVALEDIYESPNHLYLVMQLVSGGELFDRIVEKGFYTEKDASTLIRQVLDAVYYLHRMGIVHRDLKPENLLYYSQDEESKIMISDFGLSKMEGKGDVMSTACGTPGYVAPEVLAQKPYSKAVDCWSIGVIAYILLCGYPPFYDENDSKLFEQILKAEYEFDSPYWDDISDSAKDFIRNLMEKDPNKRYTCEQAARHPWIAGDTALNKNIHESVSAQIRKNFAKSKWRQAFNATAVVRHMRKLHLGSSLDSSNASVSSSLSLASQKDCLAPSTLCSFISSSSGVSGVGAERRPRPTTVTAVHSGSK
Sequence of Serine/threonine-protein kinase B-raf (Homo sapiens) (P15056 whole entry): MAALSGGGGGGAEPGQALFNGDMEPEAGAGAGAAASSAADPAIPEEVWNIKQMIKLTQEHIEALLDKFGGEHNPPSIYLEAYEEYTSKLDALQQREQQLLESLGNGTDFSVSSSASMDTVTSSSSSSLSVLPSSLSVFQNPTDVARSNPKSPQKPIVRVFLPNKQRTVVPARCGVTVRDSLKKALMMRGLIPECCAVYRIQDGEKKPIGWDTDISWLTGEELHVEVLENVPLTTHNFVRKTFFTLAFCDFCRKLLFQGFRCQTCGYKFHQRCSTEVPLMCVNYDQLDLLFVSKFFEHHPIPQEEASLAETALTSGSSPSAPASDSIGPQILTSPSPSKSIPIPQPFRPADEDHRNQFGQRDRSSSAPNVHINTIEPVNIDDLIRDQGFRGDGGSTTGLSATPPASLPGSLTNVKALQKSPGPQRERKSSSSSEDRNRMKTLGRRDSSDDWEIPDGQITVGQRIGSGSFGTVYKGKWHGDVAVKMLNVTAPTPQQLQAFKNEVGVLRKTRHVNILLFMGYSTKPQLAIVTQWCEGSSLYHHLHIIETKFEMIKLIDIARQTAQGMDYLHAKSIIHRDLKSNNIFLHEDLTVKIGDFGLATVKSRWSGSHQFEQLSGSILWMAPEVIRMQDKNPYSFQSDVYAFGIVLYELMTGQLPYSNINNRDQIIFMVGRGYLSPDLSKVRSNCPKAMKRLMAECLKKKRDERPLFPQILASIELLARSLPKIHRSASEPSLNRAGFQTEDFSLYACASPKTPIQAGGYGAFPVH

Take `CN(C)C/C=C/C(=O)Nc1ccc(C(=O)N2CCCC(Nc3ncc(Cl)c(-c4c[nH]c5ccccc45)n3)C2)cc1` (configuration not stated): the % of control was determined as 97% in experiment [1], 78% in [2] and 87% in experiment [3].

`Nc1cnc(N2CCc3cc(S(=O)(=O)Nc4c(F)cc(Cl)cc4F)cc(N4CCCC4=O)c32)nc1` [TP-020n]: the % of control in experiment [4] was 100%.

`CC(=O)Nc1cccc(-n2c(=O)n(C3CC3)c(=O)c3c(Nc4ccc(I)cc4F)n(C)c(=O)c(C)c32)c1` came in with a % of control in [5] of 107%.

With `CC[C@@H](Nc1c(C#N)c(-c2ccc(-c3cccc(C)c3F)cc2)nc2cnccc12)C(=O)O` [BAY-091], the % of inhibition in [6] was 23.5%.

In the case of `C=CC(=O)Nc1cc(-n2c(=O)ccc3cnc4ccc(-c5ccc(NS(C)(=O)=O)cc5)cc4c32)ccc1C`, the % of control in experiment [7] was determined as 98%.

Take `Cn1cc(-n2cnc3c(NCc4nc5cc(Cl)c(Cl)cc5[nH]4)nc(N4CCOCC4)nc32)cn1`: the % of inhibition in experiment [8] was -20.1%.

`CCC(=O)N1CC[C@H](Nc2ncnc3c2CN(c2cnc(OC)c(C(F)(F)F)c2)CC3)C1` [LENIOLISIB] gave an IC50 in experiment [9] greater than 10 µM.

In turn, `COCC(=O)NC/C=C/c1ccc2ncnc(Nc3ccc(Oc4ccc(C)nc4)c(C)c3)c2c1` [CP-724714] yielded a % of control in experiment [10] of 100%.

In turn, `N#Cc1cccc(-c2c[nH]c3ncnc(N4CCOCC4)c23)c1` yielded a % of control in experiment [11] of 100%.

Turning to `C=CC(=O)Nc1ccc(C(=O)Nc2[nH]nc3c2CN(C(=O)N[C@H](CN(C)C)c2ccccc2)C3(C)C)cc1`, the % of engagement in [12] is 16.5%.

Values taken from ChEMBL document CHEMBL5465560, “Selectivity Literature for EUbOPEN Chemogenomic Library” (2024).
